Tested on: 633275-114-R-J1-PDC complex spheroids, viability
Test: Anticancer human tumor 633275-114-R-J1-PDC patient-derived endometrial adenocarcinoma cell line growth inhibition [GQUAD]
Details: for IC50: curve of first compound; for viability, T/C: stronger effect = lower value
Summary of the method: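 Viability of tumor cells grown as complex spheroids with endothelial and stromal cells, exposed to drug combinations. Top concentration at or near clinical Cmax (else 10 microM), diluted in half-log increments.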

[1] = second compound 0.0316 µM, first compound 0.0316 µM
[2] = second compound 0.0316 µM, first compound 0.1 µM
[3] = second compound 0.0316 µM, first compound 0.316 µM
[4] = second compound 0.0316 µM, first compound 1 µM
[5] = second compound 0.0316 µM, first compound 3.16 µM
[6] = second compound 0.0316 µM, first compound 10 µM
[7] = second compound 0.1 µM, first compound 0.0316 µM
[8] = second compound 0.1 µM, first compound 0.1 µM
[9] = second compound 0.1 µM, first compound 0.316 µM
[10] = second compound 0.1 µM, first compound 1 µM
[11] = second compound 0.1 µM, first compound 3.16 µM
[12] = second compound 0.1 µM, first compound 10 µM
[13] = second compound 0.316 µM, first compound 0.0316 µM
[14] = second compound 0.316 µM, first compound 0.1 µM
[15] = second compound 0.316 µM, first compound 0.316 µM
[16] = second compound 0.316 µM, first compound 1 µM
[17] = second compound 0.316 µM, first compound 3.16 µM
[18] = second compound 0.316 µM, first compound 10 µM
[19] = second compound 1 µM, first compound 0.0316 µM
[20] = second compound 1 µM, first compound 0.1 µM
[21] = second compound 1 µM, first compound 0.316 µM
[22] = second compound 1 µM, first compound 1 µM
[23] = second compound 1 µM, first compound 3.16 µM
[24] = second compound 1 µM, first compound 10 µM
[25] = second compound 3.16 µM, first compound 0.0316 µM
[26] = second compound 3.16 µM, first compound 0.1 µM
[27] = second compound 3.16 µM, first compound 0.316 µM
[28] = second compound 3.16 µM, first compound 1 µM
[29] = second compound 3.16 µM, first compound 3.16 µM
[30] = second compound 3.16 µM, first compound 10 µM
[31] = second compound 10 µM, first compound 0.0316 µM
[32] = second compound 10 µM, first compound 0.1 µM
[33] = second compound 10 µM, first compound 0.316 µM
[34] = second compound 10 µM, first compound 1 µM
[35] = second compound 10 µM, first compound 3.16 µM
[36] = second compound 10 µM, first compound 10 µM
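Also: spheroids exposed to the agents for seven days.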
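For viability, T/C in this document: percent of DMSO vehicle control viability which is 100%.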

## Cc1cccc(N(C)C(=O)C2C(O)CCN2c2nc(C)cc(C(F)(F)F)c2C#N)c1 (centres undefined) + CN(C)c1ccc(Nc2c3ccc(NC(=O)CCN4CCCC4)cc3nc3cc(NC(=O)CCN4CCCC4)ccc23)cc1
Second compound 0.0316 µM
  IC50: > 10000 nM
Second compound 0.1 µM
  IC50: > 10000 nM
Second compound 0.316 µM
  IC50: > 10000 nM
Second compound 1 µM
  IC50: > 10000 nM
Second compound 3.16 µM
  IC50: 8550 nM
Second compound 10 µM
  IC50: < 31.6 nM
[1]
  viability, T/C: 102%
[2]
  viability, T/C: 99.2%
[3]
  viability, T/C: 105%
[4]
  viability, T/C: 105%
[5]
  viability, T/C: 96.3%
[6]
  viability, T/C: 104%
[7]
  viability, T/C: 107%
[8]
  viability, T/C: 103%
[9]
  viability, T/C: 104%
[10]
  viability, T/C: 99.5%
[11]
  viability, T/C: 101%
[12]
  viability, T/C: 97.8%
[13]
  viability, T/C: 99.3%
[14]
  viability, T/C: 94.4%
[15]
  viability, T/C: 101%
[16]
  viability, T/C: 91%
[17]
  viability, T/C: 94%
[18]
  viability, T/C: 85.3%
[19]
  viability, T/C: 96.2%
[20]
  viability, T/C: 96.6%
[21]
  viability, T/C: 97.6%
[22]
  viability, T/C: 99.5%
[23]
  viability, T/C: 94.6%
[24]
  viability, T/C: 87.1%
[25]
  viability, T/C: 88.8%
[26]
  viability, T/C: 84.8%
[27]
  viability, T/C: 95.5%
[28]
  viability, T/C: 82.4%
[29]
  viability, T/C: 69.2%
[30]
  viability, T/C: 47%
[31]
  viability, T/C: 30.5%
[32]
  viability, T/C: 34.7%
[33]
  viability, T/C: 28%
[34]
  viability, T/C: 29.6%
[35]
  viability, T/C: 28.2%
[36]
  viability, T/C: 16.1%

## CC(C)(O)C1CCC(Nc2ccc3ncc(-c4cccc(C(F)(F)F)c4)n3n2)CC1 (centres undefined) + Cc1cnc(CNC(=O)c2c(=O)c3ccc(N4CCCN(C)CC4)nc3n3c2sc2ccccc23)cn1
Second compound 0.0316 µM
  IC50: 886 nM
Second compound 0.1 µM
  IC50: < 31.6 nM
Second compound 0.316 µM
  IC50: < 31.6 nM
Second compound 1 µM
  IC50: < 31.6 nM
Second compound 3.16 µM
  IC50: < 31.6 nM
Second compound 10 µM
  IC50: < 31.6 nM
[1]
  viability, T/C: 64.2%
[2]
  viability, T/C: 66.3%
[3]
  viability, T/C: 64.7%
[4]
  viability, T/C: 48.2%
[5]
  viability, T/C: 22.2%
[6]
  viability, T/C: 32.5%
[7]
  viability, T/C: 52.1%
[8]
  viability, T/C: 52.7%
[9]
  viability, T/C: 44.5%
[10]
  viability, T/C: 39.9%
[11]
  viability, T/C: 19.4%
[12]
  viability, T/C: 26.1%
[13]
  viability, T/C: 46.1%
[14]
  viability, T/C: 42.3%
[15]
  viability, T/C: 45.5%
[16]
  viability, T/C: 35.8%
[17]
  viability, T/C: 18.6%
[18]
  viability, T/C: 22.3%
[19]
  viability, T/C: 43.8%
[20]
  viability, T/C: 43.5%
[21]
  viability, T/C: 42.6%
[22]
  viability, T/C: 34.6%
[23]
  viability, T/C: 16.5%
[24]
  viability, T/C: 19.8%
[25]
  viability, T/C: 38.3%
[26]
  viability, T/C: 40.4%
[27]
  viability, T/C: 39.7%
[28]
  viability, T/C: 28%
[29]
  viability, T/C: 0.11%
[30]
  viability, T/C: 7.92%
[31]
  viability, T/C: 30.7%
[32]
  viability, T/C: 33.9%
[33]
  viability, T/C: 30.4%
[34]
  viability, T/C: 15.6%
[35]
  viability, T/C: 0.2%
[36]
  viability, T/C: 0.19%

— PubChem BioAssay AID2060505 (Molecular Pharmacology Branch, DTP, NCI, 2025)
